Read-outs that look alike come from different tables or passages of the source.
Tests used:
[1] = Stability of product in nitrilase-catalyzed reaction solution by HPLC (Example 7); type: in vitro ADME; conditions: absorption at 500 nm
Method: (§1) Product stability after enzymatic reaction was studied by HPLC analysis.
(§2) For HPLC analysis of the nitrile hydratase-catalyzed reaction solution (160 μL), the above pump, column, solvent conditions and detector were used to monitor absorption at 500 nm. On the other hand, for analysis of the nitrilase-catalyzed reaction solution (160 μL), the same procedure as used for analysis of the nitrile hydratase-catalyzed reaction solution was repeated to monitor absorption at 500 nm.

[2] = Fluorescence quantum yield measurement of compounds 1 to 6; type: physicochemical
Method: Compounds 1 to 6 obtained above were measured for their fluorescence.
Compounds 1 to 6 were also measured for their fluorescence quantum yield (Φfl). […] With respect to compounds 5 and 6, it should be noted that their fluorescence quantum yields were calculated as values in isolated form based on the concentration ratio determined by HPLC.

[3] = target: T1, Rhodococcus rhodochrous strain J1-derived nitrile hydratase (Rhodococcus rhodochrous, UniProt P21219+P21220); assay: Nitrile hydratase-catalyzed reaction with cell-free extract, detection with fluorescence imager (Example 2); type: biochemical; conditions: 30° C., 1 hour, excited at 488 nm, detected at 530 nm; vector pK4 control showed no change
T1 construct: made in house; host or cells: Rhodococcus rhodochrous ATCC12674 transformed with pSJ034; crude cell-free extract
T1 sequence (P21219 1-203): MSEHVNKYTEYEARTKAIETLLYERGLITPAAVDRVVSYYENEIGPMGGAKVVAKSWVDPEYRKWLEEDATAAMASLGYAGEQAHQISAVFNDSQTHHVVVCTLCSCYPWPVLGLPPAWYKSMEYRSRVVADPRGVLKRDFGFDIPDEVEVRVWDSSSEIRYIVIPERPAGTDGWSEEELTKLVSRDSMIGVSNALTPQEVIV
T1 sequence (P21220 1-229): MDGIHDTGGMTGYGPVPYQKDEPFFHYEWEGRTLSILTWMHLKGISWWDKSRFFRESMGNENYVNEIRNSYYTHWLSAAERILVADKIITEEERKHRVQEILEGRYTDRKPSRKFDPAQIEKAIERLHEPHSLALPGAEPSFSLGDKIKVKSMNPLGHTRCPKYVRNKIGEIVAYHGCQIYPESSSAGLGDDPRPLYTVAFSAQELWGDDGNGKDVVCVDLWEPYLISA
Text: Plasmid pSJ034 designed to constitutively express Rhodococcus rhodochrous strain J1-derived nitrile hydratase in Rhodococcus bacterial cells was introduced into Rhodococcus rhodochrous strain ATCC12674. pSJ034 has been prepared from plasmid pSJ023 as described in the specification of JP 10-337185 A. pSJ023 was deposited as a transformant, R. rhodochrous ATCC12674/pSJ023 (FERM BP-6232), with the International Patent Organism Depositary, the National Institute of Advanced Industrial Science and Technology.
Rhodococcus rhodochrous strain ATCC12674 was transformed with plasmid pSJ034 to prepare ATCC12674/pSJ034. The strain 12674 was also transformed with vector pK4 for use in a control experiment.
The colony was cultured as follows. The colony was inoculated into a kanamycin (50 mg/L)-containing MYK medium (10 ml) and pre-cultured at 30° C. for 24 hours. […]
10 μL of sodium phosphate buffer (pH 7.0), 75 μL of sterilized water and 5 μL of 0.01 mM nitrile fluorescent substrate (compound 2: dissolved in 10% DMSO) were mixed together and pre-incubated at 30° C. […] After the reaction at 30° C. for 1 hour, the mixture was transferred to a 96-well microplate and fluorescence was detected with a fluorescence imager (BioRad Pharos FX molecular Imager, excited at 488 nm, detected at 530 nm).

[4] = Fluorescence quantum yield, absolute PL quantum yield measurement system (Quantaurus-QY); type: physicochemical; conditions: 0.2 μM, 0.02% DMSO, 200 mM sodium phosphate buffer pH 7.3, 470 nm excitation light
Method: The absorption spectra and fluorescence quantum yields of the compounds were measured as follows.
A 1 mM solution of compound 7 in DMSO was prepared and this solution was added to 200 mM sodium phosphate buffers of pH 2 to 12 to prepare 1 μM sample solutions containing 0.1% DMSO. These sample solutions were measured for their absorption spectra between 300 nm and 600 nm with an ultraviolet and visible spectrophotometer UV-2450 (Shimadzu Corporation, Japan). In addition, a 0.2 μM sample solution of compound 7 containing 0.02% DMSO in 200 mM sodium phosphate buffer (pH 7.3) was prepared and measured for its fluorescence quantum yield using an absolute PL quantum yield measurement system, Quantaurus-QY (Hamamatsu Photonics K.K., Japan), under irradiation with 470 nm excitation light.

[5] = test system: Rhodococcus sp. strain SK92-derived nitrilase; assay: Nitrilase-catalyzed reaction for 24 hours, observation by the naked eye (Example 4); type: biochemical; conditions: 0.1 mM substrate stock, JM109/pUC118 control showed little change in color
Method: 10 μL of sodium phosphate buffer (pH 7.0), 75 μL of sterilized water and 5 μL of 0.1 mM nitrile fluorescent substrate (compound 2: dissolved in DMSO) were mixed together and pre-incubated at 30° C. A cell-free extract (10 μL), which had been prepared in the same manner as shown in Example 3, was added to initiate the reaction.

[6] = target: T1, Rhodococcus rhodochrous strain J1-derived nitrile hydratase; assay: Detection of nitrile hydratase-catalyzed enzymatic reaction using fluorometer (Example 5); type: biochemical; conditions: for increase in fluorescence in comparison with a solution not containing the cell-free extract: crude nitrile hydratase solution, 37° C., 5 h after addition, 490 nm excitation light
Method: Nitrile hydratase solution was prepared in the same manner as shown in Example 2.
(§3) 178 μL of sodium phosphate buffer (200 mM, pH 7.3) and 2 μL of 1 mM fluorescent substrate (compound 7 or compound 2: dissolved in DMSO) were mixed together and pre-incubated at 37° C. The cell-free extract prepared above (20 μL) was added to initiate the reaction. Sampling was conducted at one hour intervals by addition of 380 μL sodium phosphate buffer (200 mM, pH 7.3) to 20 μL reaction solution, and each sample was measured for its fluorescence using a spectrophotofluorometer, model F-4500 (Hitachi High-Technologies Corporation, Japan). The measurement was performed with 490 nm excitation light under the following conditions: a slit width of 2.5 nm/2.5 nm, a photomultiplier voltage of 700 V and 37° C.

[7] = test system: Rhodococcus sp. strain SK92-derived nitrilase; assay: Nitrilase-catalyzed reaction with cell-free extract, detection with fluorescence imager (Example 3); type: biochemical; conditions: 30° C., 1 hour, excited at 488 nm, detected at 530 nm; JM109/pUC118 control showed no change
Method: 10 μL of sodium phosphate buffer (pH 7.0), 75 μL of sterilized water and 5 μL of 0.01 mM nitrile fluorescent substrate (compound 2: dissolved in 10% DMSO) were mixed together and pre-incubated at 30° C. The cell-free extract prepared above (10 μL) was added to initiate the reaction. After the reaction at 30° C. for 1 hour, the mixture was transferred to a 96-well microplate and fluorescence was detected with a fluorescence imager (BioRad Pharos FX molecular Imager, excited at 488 nm, detected at 530 nm).
A recombinant E. coli, JM109/pSK002, which highly expresses Rhodococcus sp. strain SK92-derived nitrilase (JP 8-173169 A) was inoculated into 1 ml of a 50 ampicillin-containing LB medium (1% Bactotryptone, 0.5% Bactoyeast extract, 0.5% NaCl) and pre-cultured at 37° C. for 7 hours. The culture broth was taken in a volume of 0.1 ml and added to 100 ml of the same medium (containing 50 μg/ml ampicillin and 1 mM IPTG), followed by shaking culture at 37° C. for 15 hours. The resulting culture broth was centrifuged (3,700×g, 10 minutes, 4° C.) to collect the cells, which were then washed with 10 mM sodium phosphate buffer (pH 7.0) and suspended in the same buffer. As a control strain, JM109/pUC118 was used. […]
In the same manner as shown in Example 2, the reaction was performed using a nitrile fluorescent substrate (compound 2), followed by detection with a fluorescence imager.

[8] = Stability of product in nitrile hydratase-catalyzed reaction solution by HPLC (Example 7); type: in vitro ADME; conditions: absorption at 500 nm
Method: as §1, §2

[9] = test system: Rhodococcus sp. strain SK92-derived nitrilase; assay: HPLC analysis on nitrilase-catalyzed reaction solution (Example 6); type: biochemical
Method: (§4) After reaction at 37° C. for 5 hours as described above, the reaction solution was analyzed by HPLC under the following conditions. • Model: fluid delivery pump PU-2080 (JASCO) • Column: Inertsil ODS-3 (4.6×250 mm) column (GL Sciences Inc.) • Solvent: eluted with a linear gradient from 75% acetonitrile/0.1% TFA in water (0 min) to 15% acetonitrile/0.1% TFA in water (30 min) • Detection: detector MD-2010 (JASCO), monitored by absorption at 500 nm
Nitrilase activity was analyzed in accordance with the procedures shown in Example 4.

[10] = target: T1, Rhodococcus rhodochrous strain J1-derived nitrile hydratase; assay: HPLC analysis on nitrile hydratase-catalyzed reaction solution (Example 5); type: biochemical; conditions: 37° C., 5 hours, absorption at 500 nm
Method: as §4

[11] = test system: Rhodococcus sp. strain SK92-derived nitrilase; assay: Detection of nitrilase-catalyzed enzymatic reaction using fluorometer (Example 6); type: biochemical
Method: as §3
Nitrilase solution was prepared in the same manner as shown in Example 3.
Detection was conducted in accordance with the procedures shown in Example 5, provided that the compound used in the experiment was compound 7 and the enzyme solutions used were a cell-free extract derived from JM109/pSK002 (containing nitrilase) and a cell-free extract derived from the above control strain JM109/pTrc99A (having no nitrilase activity).

[12] = calculated as values in isolated form based on the concentration ratio determined by HPLC (mixture of compounds 5 and 6)

O=C(O)c1ccc(-c2c3ccc(=O)cc-3oc3cc(O)ccc23)c(C(=O)OCc2ccc(Cl)cc2)c1 [compound 11]
HPLC peak corresponding to ester hydrolysis product 5-carboxylfluorescein [1]: not observed

COC(=O)c1ccc(C#N)cc1-c1c2ccc(=O)cc-2oc2cc(O)ccc12 [compound 1]
Fluorescence quantum yield (Φf1) [2]: 0.007

COC(=O)c1ccc(C(=O)O)cc1-c1c2ccc(=O)cc-2oc2cc(O)ccc12 [compound 5]
Fluorescence quantum yield (Φf1) [2, 12]: 0.0729

COC(=O)c1cc(C(N)=O)ccc1-c1c2ccc(=O)cc-2oc2cc(O)ccc12 [compound 4]
Fluorescence quantum yield (Φf1) [2]: 0.397

COC(=O)c1ccc(C(N)=O)cc1-c1c2ccc(=O)cc-2oc2cc(O)ccc12 [compound 3]
Fluorescence quantum yield (Φf1) [2]: 0.018

COC(=O)c1cc(C#N)ccc1-c1c2ccc(=O)cc-2oc2cc(O)ccc12 [compound 2]
Fluorescence quantum yield (Φf1) [2]: 0.161 | change in intensity of fluorescence with nitrile hydratase-expressing recombinant cell-free extract [3]: significant increase in the intensity of fluorescence | fluorescence quantum yield [4]: 0.172 | fluorescence observed by the naked eye with nitrilase-expressing recombinant cell-free extract [5]: significant green fluorescence was observed | increase in fluorescence in comparison with a solution not containing the cell-free extract [6]: ~3.9 fold | change in intensity of fluorescence with nitrilase-expressing recombinant cell-free extract [7]: significant increase in the intensity of fluorescence

NC(=O)c1ccc(-c2c3ccc(=O)cc-3oc3cc(O)ccc23)c(C(=O)OCc2ccc(Cl)cc2)c1 [compound 9, 5-CONH2 fluorescein 4-chlorobenzyl ester]
HPLC peak corresponding to ester hydrolysis product 5-CONH2 fluorescein [8]: not observed

N#Cc1ccc(-c2c3ccc(=O)cc-3oc3cc(O)ccc23)c(C(=O)OCc2ccc(Cl)cc2)c1 [compound 7, 5-cyanofluorescein-4-chlorobenzyl ester]
HPLC peak of substrate after nitrilase-catalyzed reaction ([9]; JM109/pSK002-derived cell-free extract, absorption at 500 nm): disappeared, while a peak of a new product generated by the enzymatic reaction appeared | reaction product by HPLC with control cell-free extract ([9]; JM109/pTrc99A-derived cell-free extract): no reaction product was observed | fluorescence quantum yield [4]: 0.154 | HPLC peak of substrate after nitrile hydratase-catalyzed reaction [10]: disappeared, while a peak of a new product generated by the enzymatic reaction appeared | increase in fluorescence in comparison with a solution not containing the cell-free extract [6]: ~7.2 fold | increase in fluorescence relative to that of compound 2 ([6]; nitrile hydratase reaction, compound 7 versus compound 2): 1.5 fold | increase in fluorescence in comparison with the absence of the cell-free extract ([11]; JM109/pSK002-derived cell-free extract (containing nitrilase), 5 h after addition): ~7.5 fold | increase in fluorescence with control cell-free extract ([11]; JM109/pTrc99A-derived cell-free extract (having no nitrilase activity)): little increase in its fluorescence

COC(=O)c1cc(C(=O)O)ccc1-c1c2ccc(=O)cc-2oc2cc(O)ccc12 [compound 6]
Fluorescence quantum yield (Φf1) [2, 12]: 0.565

Reference: patent US20140072990A1, “FLUORESCENT SUBSTRATE FOR DETECTION OF ENZYMATIC ACTIVITY OF NITRILE-RELATED ENZYME” (The University of Tokyo, priority 2010, published 2014)
